Measured values as given in ChEMBL document CHEMBL1151757, “Synthesis, radiosynthesis, and biological evaluation of fluorine-18-labeled 2beta-carbo(fluoroalkoxy)-3beta-(3'-((Z)-2-haloethenyl)phenyl)nortropanes: candidate radioligands for in vivo imaging of the serotonin transporter with positron emission tomography” (J Med Chem, 2008).

What was measured:
[1] = Ratio of drug uptake in medulla to cerebellum in anesthetized cynomolgus monkey after 155 mins postinjection; format: ADME, organism-based, Macaca fascicularis; conditions: in vivo
[2] = Drug uptake in anesthetized cynomolgus monkey brain occipital lobe after 6.5 mins postinjection; format: ADME, organism-based, Macaca fascicularis; set-up: unit not given here; conditions: in vivo
[3] = Drug uptake in anesthetized cynomolgus monkey brain occipital lobe after 15.5 mins postinjection; format: ADME, organism-based, Macaca fascicularis; conditions: in vivo
[4] = Drug uptake in anesthetized cynomolgus monkey brain occipital lobe after 45 mins postinjection; format: ADME, organism-based, Macaca fascicularis; conditions: in vivo, 0.75 h
[5] = Drug uptake in anesthetized cynomolgus monkey brain occipital lobe after 85 mins postinjection; format: ADME, organism-based, Macaca fascicularis; conditions: in vivo
[6] = Drug uptake in anesthetized cynomolgus monkey brain occipital lobe after 125 mins postinjection; format: ADME, organism-based, Macaca fascicularis; conditions: in vivo
[7] = Drug uptake in anesthetized cynomolgus monkey brain occipital lobe after 145 mins postinjection; format: ADME, organism-based, Macaca fascicularis; conditions: in vivo
[8] = Drug uptake in anesthetized cynomolgus monkey brain occipital lobe after 215 mins postinjection; format: ADME, organism-based, Macaca fascicularis; conditions: in vivo
[9] = Drug uptake in anesthetized cynomolgus monkey brain occipital lobe after 235 mins postinjection; format: ADME, organism-based, Macaca fascicularis; conditions: in vivo
[10] = Drug uptake in anesthetized cynomolgus monkey brain frontal lobe after 0.5 mins postinjection; format: ADME, organism-based, Macaca fascicularis; conditions: in vivo
[11] = Drug uptake in anesthetized cynomolgus monkey brain frontal lobe after 1.5 mins postinjection; format: ADME, organism-based, Macaca fascicularis; conditions: in vivo, 0.025 h
[12] = Drug uptake in anesthetized cynomolgus monkey brain frontal lobe after 105 mins postinjection; format: ADME, organism-based, Macaca fascicularis; conditions: in vivo, 1.75 h
[13] = Drug uptake in anesthetized cynomolgus monkey brain frontal lobe after 215 mins postinjection; format: ADME, organism-based, Macaca fascicularis; conditions: in vivo
[14] = Drug uptake in anesthetized cynomolgus monkey brain frontal lobe after 235 mins postinjection; format: ADME, organism-based, Macaca fascicularis; conditions: in vivo
[15] = Ratio of drug uptake in midbrain to cerebellum in anesthetized cynomolgus monkey after 185 mins postinjection; format: ADME, organism-based, Macaca fascicularis; conditions: in vivo
[16] = Ratio of drug uptake in pons to cerebellum in anesthetized cynomolgus monkey after 0.5 mins postinjection; format: ADME, organism-based, Macaca fascicularis; conditions: in vivo
[17] = Ratio of drug uptake in pons to cerebellum in anesthetized cynomolgus monkey after 6.5 mins postinjection; format: ADME, organism-based, Macaca fascicularis; conditions: in vivo
[18] = Ratio of drug uptake in occipital lobe to cerebellum in anesthetized cynomolgus monkey after 95 mins postinjection; format: ADME, organism-based, Macaca fascicularis; conditions: in vivo
[19] = Ratio of drug uptake in occipital lobe to cerebellum in anesthetized cynomolgus monkey after 125 mins postinjection; format: ADME, organism-based, Macaca fascicularis; conditions: in vivo
Putamen [20] = test: Drug uptake in anesthetized cynomolgus monkey brain putamen after 125 mins postinjection; format: ADME, organism-based, Macaca fascicularis; conditions: in vivo
Putamen [21] = test: Drug uptake in anesthetized cynomolgus monkey brain putamen after 225 mins postinjection; format: ADME, organism-based, Macaca fascicularis; conditions: in vivo, 3.75 h
[22] = Ratio of drug uptake in frontal lobe to cerebellum in anesthetized cynomolgus monkey after 35 mins postinjection; format: ADME, organism-based, Macaca fascicularis; conditions: in vivo
Pons [23] = test: Drug uptake in anesthetized cynomolgus monkey brain pons after 0.5 mins postinjection; format: ADME, organism-based, Macaca fascicularis; conditions: in vivo
Pons [24] = test: Drug uptake in anesthetized cynomolgus monkey brain pons after 18.5 mins postinjection; format: ADME, organism-based, Macaca fascicularis; conditions: in vivo
Pons [25] = test: Drug uptake in anesthetized cynomolgus monkey brain pons after 35 mins postinjection; format: ADME, organism-based, Macaca fascicularis; conditions: in vivo
Pons [26] = test: Drug uptake in anesthetized cynomolgus monkey brain pons after 185 mins postinjection; format: ADME, organism-based, Macaca fascicularis; conditions: in vivo
Pons [27] = test: Drug uptake in anesthetized cynomolgus monkey brain pons after 205 mins postinjection; format: ADME, organism-based, Macaca fascicularis; conditions: in vivo
[28] = Drug uptake in anesthetized cynomolgus monkey brain frontal lobe after 195 mins postinjection; format: ADME, organism-based, Macaca fascicularis; conditions: in vivo, 3.25 h
Putamen [29] = test: Drug uptake in anesthetized cynomolgus monkey brain putamen after 185 mins postinjection; format: ADME, organism-based, Macaca fascicularis; conditions: in vivo
Putamen [30] = test: Drug uptake in anesthetized cynomolgus monkey brain putamen after 205 mins postinjection; format: ADME, organism-based, Macaca fascicularis; conditions: in vivo
[31] = Ratio of drug uptake in caudate to cerebellum in anesthetized cynomolgus monkey after 12.5 mins postinjection; format: ADME, organism-based, Macaca fascicularis; conditions: in vivo
Pons [32] = test: Drug uptake in anesthetized cynomolgus monkey brain pons after 115 mins postinjection; format: ADME, organism-based, Macaca fascicularis; conditions: in vivo
Pons [33] = test: Drug uptake in anesthetized cynomolgus monkey brain pons after 155 mins postinjection; format: ADME, organism-based, Macaca fascicularis; conditions: in vivo
Pons [34] = test: Drug uptake in anesthetized cynomolgus monkey brain pons after 215 mins postinjection; format: ADME, organism-based, Macaca fascicularis; conditions: in vivo
Pons [35] = test: Drug uptake in anesthetized cynomolgus monkey brain pons after 235 mins postinjection; format: ADME, organism-based, Macaca fascicularis; conditions: in vivo
Medulla [36] = test: Drug uptake in anesthetized cynomolgus monkey brain medulla after 2.5 mins postinjection; format: ADME, organism-based, Macaca fascicularis; conditions: in vivo
Medulla [37] = test: Drug uptake in anesthetized cynomolgus monkey brain medulla after 3.5 mins postinjection; format: ADME, organism-based, Macaca fascicularis; conditions: in vivo
Medulla [38] = test: Drug uptake in anesthetized cynomolgus monkey brain medulla after 105 mins postinjection; format: ADME, organism-based, Macaca fascicularis; conditions: in vivo, 1.75 h
[39] = Ratio of drug uptake in putamen to cerebellum in anesthetized cynomolgus monkey after 35 mins postinjection; format: ADME, organism-based, Macaca fascicularis; conditions: in vivo
Medulla [40] = test: Drug uptake in anesthetized cynomolgus monkey brain medulla after 165 mins postinjection; format: ADME, organism-based, Macaca fascicularis; conditions: in vivo, 2.75 h
[41] = Octanol-water partition coefficient, log P at pH 7.4 by shake-flask method; format: physicochemical
[42] = Ratio of drug uptake in putamen to cerebellum in anesthetized cynomolgus monkey after 165 mins postinjection; format: ADME, organism-based, Macaca fascicularis; conditions: in vivo, 2.75 h
[43] = Drug uptake in anesthetized cynomolgus monkey brain cerebellum after 3.5 mins postinjection; format: ADME, organism-based, Macaca fascicularis; conditions: in vivo
[44] = Drug uptake in anesthetized cynomolgus monkey brain cerebellum after 6.5 mins postinjection; format: ADME, organism-based, Macaca fascicularis; conditions: in vivo
[45] = Drug uptake in anesthetized cynomolgus monkey brain cerebellum after 65 mins postinjection; format: ADME, organism-based, Macaca fascicularis; conditions: in vivo
[46] = Drug uptake in anesthetized cynomolgus monkey brain cerebellum after 155 mins postinjection; format: ADME, organism-based, Macaca fascicularis; conditions: in vivo
[47] = Drug uptake in anesthetized cynomolgus monkey brain cerebellum after 235 mins postinjection; format: ADME, organism-based, Macaca fascicularis; conditions: in vivo
[48] = Drug uptake in anesthetized cynomolgus monkey brain occipital lobe after 0.5 mins postinjection; format: ADME, organism-based, Macaca fascicularis; conditions: in vivo
[49] = Ratio of drug uptake in putamen to cerebellum in anesthetized cynomolgus monkey after 235 mins postinjection; format: ADME, organism-based, Macaca fascicularis; conditions: in vivo
[50] = Ratio of drug uptake in thalamus to cerebellum in anesthetized cynomolgus monkey after 135 mins postinjection; format: ADME, organism-based, Macaca fascicularis; conditions: in vivo, 2.25 h
[51] = Ratio of drug uptake in thalamus to cerebellum in anesthetized cynomolgus monkey after 155 mins postinjection; format: ADME, organism-based, Macaca fascicularis; conditions: in vivo
Caudate [52] = test: Drug uptake in anesthetized cynomolgus monkey brain caudate after 6.5 mins postinjection; format: ADME, organism-based, Macaca fascicularis, Caudate nucleus; conditions: in vivo
Caudate [53] = test: Drug uptake in anesthetized cynomolgus monkey brain caudate after 22.5 mins postinjection; format: ADME, organism-based, Macaca fascicularis, Caudate nucleus; conditions: in vivo, 0.375 h
Caudate [54] = test: Drug uptake in anesthetized cynomolgus monkey brain caudate after 155 mins postinjection; format: ADME, organism-based, Macaca fascicularis, Caudate nucleus; conditions: in vivo
[55] = Ratio of drug uptake in occipital lobe to cerebellum in anesthetized cynomolgus monkey after 12.5 mins postinjection; format: ADME, organism-based, Macaca fascicularis; conditions: in vivo
Thalamus [56] = test: Drug uptake in anesthetized cynomolgus monkey brain thalamus after 4.5 mins postinjection; format: ADME, organism-based, Macaca fascicularis; set-up: unit not given here; conditions: in vivo, 0.075 h
Thalamus [57] = test: Drug uptake in anesthetized cynomolgus monkey brain thalamus after 9.5 mins postinjection; format: ADME, organism-based, Macaca fascicularis; set-up: unit not given here; conditions: in vivo
Thalamus [58] = test: Drug uptake in anesthetized cynomolgus monkey brain thalamus after 35 mins postinjection; format: ADME, organism-based, Macaca fascicularis; set-up: unit not given here; conditions: in vivo
Thalamus [59] = test: Drug uptake in anesthetized cynomolgus monkey brain thalamus after 45 mins postinjection; format: ADME, organism-based, Macaca fascicularis; set-up: unit not given here; conditions: in vivo, 0.75 h
Putamen [60] = test: Drug uptake in anesthetized cynomolgus monkey brain putamen after 6.5 mins postinjection; format: ADME, organism-based, Macaca fascicularis; set-up: unit not given here; conditions: in vivo
Putamen [61] = test: Drug uptake in anesthetized cynomolgus monkey brain putamen after 12.5 mins postinjection; format: ADME, organism-based, Macaca fascicularis; set-up: unit not given here; conditions: in vivo
Putamen [62] = test: Drug uptake in anesthetized cynomolgus monkey brain putamen after 35 mins postinjection; format: ADME, organism-based, Macaca fascicularis; set-up: unit not given here; conditions: in vivo
Thalamus [63] = test: Drug uptake in anesthetized cynomolgus monkey brain thalamus after 55 mins postinjection; format: ADME, organism-based, Macaca fascicularis; set-up: unit not given here; conditions: in vivo
Thalamus [64] = test: Drug uptake in anesthetized cynomolgus monkey brain thalamus after 85 mins postinjection; format: ADME, organism-based, Macaca fascicularis; set-up: unit not given here; conditions: in vivo
Midbrain [65] = test: Drug uptake in anesthetized cynomolgus monkey brain midbrain after 3.5 mins postinjection; format: ADME, organism-based, Macaca fascicularis; set-up: unit not given here; conditions: in vivo
Midbrain [66] = test: Drug uptake in anesthetized cynomolgus monkey brain midbrain after 85 mins postinjection; format: ADME, organism-based, Macaca fascicularis; set-up: unit not given here; conditions: in vivo
[67] = Ratio of drug uptake in midbrain to cerebellum in anesthetized cynomolgus monkey after 2.5 mins postinjection; format: ADME, organism-based, Macaca fascicularis; conditions: in vivo
[68] = Ratio of drug uptake in midbrain to cerebellum in anesthetized cynomolgus monkey after 95 mins postinjection; format: ADME, organism-based, Macaca fascicularis; conditions: in vivo

O=C(OCC[18F])C1C2CCC(CC1c1cccc(/C=C\Br)c1)N2 (stereo not drawn) gave a Ratio [1] of 1.7, a Drug uptake [2] of 2.17 and a Drug uptake [3] of 2.99. The Drug uptake [4] was 3.55, the Drug uptake [5] was 3.31 and the Drug uptake [6] was 3.07. It also gave a Drug uptake [7] of 2.74, a Drug uptake [8] of 2.01 and a Drug uptake [9] of 1.94. For the same compound, the Drug uptake [10] was 0, the Drug uptake [11] was 0.04 and the Drug uptake [12] was 2.69. It also gave a Drug uptake [13] of 1.97, a Drug uptake [14] of 1.87 and a Ratio [15] of 2.2. The Ratio [16] was 3.8, the Ratio [17] was 1 and the Ratio [18] was 1. The Ratio [19] was 1.1, the Drug uptake (Putamen [20]) was 4.59 and the Drug uptake (Putamen [21]) was 3. It also gave a Ratio [22] of 0.7, a Drug uptake (Pons [23]) of 0.01 and a Drug uptake (Pons [24]) of 4.13. It also gave a Drug uptake (Pons [25]) of 4.22, a Drug uptake (Pons [26]) of 3.6 and a Drug uptake (Pons [27]) of 3.51. For the same compound, the Drug uptake [28] was 2.18, the Drug uptake (Putamen [29]) was 3.68 and the Drug uptake (Putamen [30]) was 3.42. The Ratio [31] was 0.8, the Drug uptake (Pons [32]) was 4.51 and the Drug uptake (Pons [33]) was 3.92. For the same compound, the Drug uptake (Pons [34]) was 3.22, the Drug uptake (Pons [35]) was 3.08 and the Drug uptake (Medulla [36]) was 0.61. The Drug uptake (Medulla [37]) was 1.26, the Drug uptake (Medulla [38]) was 4.31 and the Ratio [39] was 1.3. It also gave a Drug uptake (Medulla [40]) of 3.94, a logD [41] of 1.4 and a Ratio [42] of 1.8. It also gave a Drug uptake [43] of 1.14, a Drug uptake [44] of 2.75 and a Drug uptake [45] of 3.5. For the same compound, the Drug uptake [46] was 2.19, the Drug uptake [47] was 1.62 and the Drug uptake [48] was 0.01. It also gave a Ratio [49] of 1.8, a Ratio [50] of 1.7 and a Ratio [51] of 1.7. It also gave a Drug uptake (Caudate [52]) of 1.92, a Drug uptake (Caudate [53]) of 3.22 and a Drug uptake (Caudate [54]) of 3.47. For the same compound, the Ratio [55] was 0.8, the Drug uptake (Thalamus [56]) was 1.44 and the Drug uptake (Thalamus [57]) was 2.83. It also gave a Drug uptake (Thalamus [58]) of 3.89, a Drug uptake (Thalamus [59]) of 4.15 and a Drug uptake (Putamen [60]) of 3.01. The Drug uptake (Putamen [61]) was 3.69, the Drug uptake (Putamen [62]) was 4.8 and the Drug uptake (Thalamus [63]) was 4.38. For the same compound, the Drug uptake (Thalamus [64]) was 4.41, the Drug uptake (Midbrain [65]) was 0.95 and the Drug uptake (Midbrain [66]) was 4.9. For the same compound, the Ratio [67] was 1.3 and the Ratio [68] was 1.6.
